# In US5521180A, “Morpholine derivative” (Yamanouchi Pharmaceutical Co., Ltd., priority 1993, dated 1996):
# Counter-ions that a name gives are not always drawn. Like-named read-outs stand apart in the source and are kept apart here.
# Tests used:
# 5-HT reuptake sites = biological target: T1, 5-HT reuptake sites (Rattus norvegicus, UniProt P31652); assay: [3H]-Citalopram binding to 5-HT reuptake sites (5-HT reuptake inhibition, in vitro); conditions: rat cerebral cortex membrane, about 1.0 nM [3H]-Citalopram, 25° C., 60 minutes
# T1 construct: a rat cerebral cortex membrane preparation (about 0.4 mg-protein); from tissue; host or cells: rat cerebral cortex membrane preparation
# T1 sequence (P31652 whole entry): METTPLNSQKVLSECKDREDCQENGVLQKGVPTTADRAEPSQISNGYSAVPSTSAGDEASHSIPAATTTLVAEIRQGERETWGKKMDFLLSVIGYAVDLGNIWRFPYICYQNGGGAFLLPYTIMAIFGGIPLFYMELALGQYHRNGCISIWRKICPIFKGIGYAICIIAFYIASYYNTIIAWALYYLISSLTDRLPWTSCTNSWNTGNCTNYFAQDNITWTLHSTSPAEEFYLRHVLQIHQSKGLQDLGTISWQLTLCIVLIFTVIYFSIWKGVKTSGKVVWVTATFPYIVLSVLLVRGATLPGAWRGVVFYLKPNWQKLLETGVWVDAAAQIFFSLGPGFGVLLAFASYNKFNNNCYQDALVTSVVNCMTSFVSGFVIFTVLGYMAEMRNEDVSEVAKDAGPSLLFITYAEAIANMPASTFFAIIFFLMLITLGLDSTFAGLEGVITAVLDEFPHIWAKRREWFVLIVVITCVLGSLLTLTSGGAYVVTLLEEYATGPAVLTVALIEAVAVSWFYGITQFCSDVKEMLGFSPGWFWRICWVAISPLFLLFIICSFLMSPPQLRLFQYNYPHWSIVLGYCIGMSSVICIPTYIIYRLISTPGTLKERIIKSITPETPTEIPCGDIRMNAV
# Procedure: The 5-HT reuptake inhibitory activity was tested by examining the degree of inhibition of a test compound on binding of [^3 H]-Citalopram to 5-HT reuptake sites.
# The method of D'amato RJ, et al. described in J. Pharmacol. Exp. Ther., 242, 364 (1987) was used. A buffer solution (0.5 ml) containing about 1.0 nM of [^3 H]-Citalopram, a rat cerebral cortex membrane preparation (about 0.4 mg-protein), and a test compound was allowed to react at 25° C. for 60 minutes. Thereafter, the labeled ligand of bound form was separated form the labeled ligand of free form by suction filtration. The amount of the ligand nonspecifically bound to the 5-HT reuptake sites, which was obtained by adding excess non-labeled Fluoxetine (10 μM), was subtracted from the total amount of the bound ligand to obtain the amount of the ligand specifically bound to the 5-HT reuptake sites. The IC50 (the concentration which reduces the amount of the specifically bound ligand by 50%) for each compound was calculated and converted to a dissociation constant (Ki value). in vivo Test: […]
# 5-HT reuptake = assay: Enhancement of the action of L-5-hydroxytryptophan in mice (5-HT reuptake inhibition, in vivo); design: species or system Male ICR mice; conditions: Mus musculus, ip, intraperitoneal, 30 minutes before 90 mg/kg i.v. L-5-hydroxytryptophan
# Procedure: Enhancement of the action of L-5-hydroxytryptophan which is a 5-HT precursor was tested [Naunyn-Schmiedeberg's Archives of Pharmacology, 311, 185-192 (1980)]. Male ICR mice weighing from 30 to 40 g were used. A test drug was intraperitoneally administered, and 30 minutes later 90 mg/kg of L-5-hydroxytryptophan was intravenously injected. […] The test drug was evaluated from the ED50 in manifestation of each action.
# 5-HT2 receptors = biological target: T2, 5-HT2 receptors (Rattus norvegicus, UniProt P14842); assay: [3H]-Ketanserin binding, antagonism for 5-HT2 receptors (in vitro); conditions: rat cerebral cortex membrane, about 1.0 nM [3H]-Ketanserin, 25° C., 30 minutes; read-out: Antagonism for 5-HT2 Receptor (Ki Value)
# T2 construct: a rat cerebral cortex membrane preparation (about 0.2 mg-protein); from tissue; host or cells: rat cerebral cortex membrane preparation
# T2 sequence (P14842 whole entry): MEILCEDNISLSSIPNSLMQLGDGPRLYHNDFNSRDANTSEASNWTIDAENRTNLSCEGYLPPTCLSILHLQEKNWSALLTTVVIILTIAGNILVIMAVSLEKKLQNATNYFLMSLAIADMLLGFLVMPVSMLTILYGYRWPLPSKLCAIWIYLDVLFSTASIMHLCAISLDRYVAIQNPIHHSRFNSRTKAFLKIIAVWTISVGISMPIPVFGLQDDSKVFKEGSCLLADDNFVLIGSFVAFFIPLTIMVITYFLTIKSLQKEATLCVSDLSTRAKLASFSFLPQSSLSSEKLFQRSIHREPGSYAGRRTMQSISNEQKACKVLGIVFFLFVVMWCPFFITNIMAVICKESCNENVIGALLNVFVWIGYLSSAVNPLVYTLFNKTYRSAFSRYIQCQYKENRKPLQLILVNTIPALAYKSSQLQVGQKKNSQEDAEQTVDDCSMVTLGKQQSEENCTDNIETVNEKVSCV
# Procedure: The degree of inhibition of a test compound on binding of [^3 H]-Ketanserin was tested. The method of Leysen JE, et al. described in Mol. Pharmacol., 21, 301 (1982) was used. A buffer solution (0.5 ml in total) containing about 1.0 nM of [^3 H]-Ketanserin, a rat cerebral cortex membrane preparation (about 0.2 mg-protein), and a test compound was allowed to react at 25° C. for 30 minutes. Thereafter, the bound labeled ligand was separated by suction filtration. The amount of the ligand nonspecifically bound to the 5-HT2 receptors, which was obtained by adding excess non-labeled Metergoline (10 μM), was subtracted from the total amount of the bound ligand to obtain the amount of the ligand specifically bound to 5-HT2 receptors. The IC50 (the concentration at which the amount of the specifically bound ligand is reduced by 50%) for each compound was calculated and converted to a dissociation constant (Ki value).
# [3H]-5-HT uptake = [3H]-5-HT uptake into cerebral cortex synaptosomes; assay type: biochemical, Wistar male rat; conditions: rat cerebral cortex synaptosomes, 10^-7 M ligand, 37° C.; read-out: IC50 in inhibition of [3H]-5-HT uptake
# Procedure: (§1) The degree of inhibition of a test compound on uptake of [^3 H]-5-HT, [^3 H]-noradrenaline and [^3 H]-dopamine into synaptosomes was examined. The method of Harada and Maeno described in Biochem. Pharmacol., 28, 2645 (1979) was used. A Wistar male rat was decapitated and the cerebral cortex and the corpus striatum were taken out. The synaptosome fraction of the cerebral cortex was prepared for 5-HT and noradrenaline uptake and that of the corpus striatum was prepared for dopamine uptake. Each synaptosome fraction was incubated at 37° C. for 3 minutes, and [^3 H]-5-HT, [^3 H]-noradrenaline and [^3 H]-dopamine (10^-7 M) was added to the respective fraction. After further incubation for 2 minutes, the system was cooled with ice (0° C.) to stop the reaction. Then, the reaction system was filtered through a Whatman CF/B glass filter, and the radioactivity trapped on the filter was measured with a liquid scintillation counter. The nonspecific activity was obtained by using a reaction system containing no test drug and having been incubated at 0° C. The test drug was evaluated from the IC50 (the concentration at which the uptake of each radioactive ligand reduced by 50%).
# [1] = test system: [3H]-noradrenaline uptake; assay: [3H]-noradrenaline uptake into cerebral cortex synaptosomes; assay type: biochemical, Wistar male rat
# Procedure: as §1
# [3H]-dopamine uptake = [3H]-dopamine uptake into corpus striatum synaptosomes; assay type: biochemical, Wistar male rat
# Procedure: as §1
# [2] = clinical use, Physician's Desk Reference 1990; cited from earlier work
# α1 receptors = conditions: background; causes side effects based thereon; cited from earlier work
# [3] = selectivity, about 30 or more times
compound,measurement,setting,value
"Fc1ccc(OCC2CNCCO2)c2c1CCC2.O=C(O)/C=C/C(=O)O (single isomer, unassigned; (-)) [Example 4, (-)-2-[[(7-fluoro-4-indanyl)oxy]methyl]morpholine fumarate]",Ki,5-HT reuptake sites,21 nM
same,ED50,5-HT reuptake; read-out: ED50 in manifestation of head shaking behavior,7.2 mg/kg
same,ED50,5-HT reuptake; read-out: ED50 in manifestation of hind leg abduction,14.1 mg/kg
same,ED50,5-HT reuptake; read-out: ED50 in manifestation of tremor,6.3 mg/kg
same,Ki,5-HT2 receptors,100 nM
"Fc1ccc(OCC2CNCCO2)c2c1CCC2 (single isomer, unassigned; (-)) [Example 5, (-)-2-[[(7-fluoro-4-indanyl)oxy]methyl]morpholine hydrochloride]",Ki,5-HT reuptake sites,21 nM
same,Ki,5-HT2 receptors,100 nM
"Fc1ccc(OCC2CNCCO2)c2c1CCC2 (stereo not drawn) [Example 1, 2-[[(7-fluoro-4-indanyl)oxy]methyl]morpholine]",IC50,[3H]-5-HT uptake,227 nM
same,IC50,"[1]; rat cerebral cortex synaptosomes, 10^-7 M ligand, 37° C., read-out: IC50 in inhibition of [3H]-noradrenaline uptake",6720 nM
same,[3H]-5-HT uptake inhibitory activity relative to [3H]-noradrenaline uptake inhibitory activity,[1]; [3],≥ 30 times
same,IC50,"[3H]-dopamine uptake; rat corpus striatum synaptosomes, 10^-7 M ligand, 37° C., read-out: IC50 in inhibition of [3H]-dopamine uptake",≥ 10000 nM
same,[3H]-5-HT uptake inhibitory activity relative to [3H]-dopamine uptake inhibitory activity,[3H]-dopamine uptake; [3],≥ 30 times
CNCCC(Oc1ccc(C(F)(F)F)cc1)c1ccccc1 (stereo not drawn) [Fluoxetine],side effects during the course of therapy,[2],induces anxiety or insomnia
O=c1n(CCCN2CCN(c3cccc(Cl)c3)CC2)nc2ccccn12 [Trazodone],affinity to α1 receptors (in words),α1 receptors,exhibits affinity to α1receptors
"c1cc2c(c(OCC3CNCCO3)c1)CCC2 (stereo not drawn) [compound 1, 2-[[(4-Indanyl)oxy]methyl]morpholine, reference compound]",Ki,5-HT reuptake sites,52 nM
same,Ki,5-HT2 receptors,1030 nM
"C1=Cc2cccc(OCC3CNCCO3)c2C1 (stereo not drawn) [compound 2, 2-[[(7-Indenyl)oxy]methyl]morpholine, reference compound]",Ki,5-HT reuptake sites,22 nM
same,Ki,5-HT2 receptors,4670 nM
